Each block holds one molecule with its values, some of them ahead of it.
Columns and labels:
[1] = molecular target: T1, hemoglobin in human whole blood (WB) (Homo sapiens, UniProt P68871+P69905); assay: Oxygen equilibrium curve (Hemox Analyzer), P50 in human whole blood; format: cell-based; details: blood matrix WB; for P50 (Torr): incubated 1-2 h at 37° C., n=3; for P50 increase (%): versus P50 control
T1 construct: Human whole blood was freshly withdrawn from healthy donors in heparinized microtubes; from tissue; host or cells: fresh human whole blood from healthy donors
T1 sequence (P69905 2-142 limits assumed): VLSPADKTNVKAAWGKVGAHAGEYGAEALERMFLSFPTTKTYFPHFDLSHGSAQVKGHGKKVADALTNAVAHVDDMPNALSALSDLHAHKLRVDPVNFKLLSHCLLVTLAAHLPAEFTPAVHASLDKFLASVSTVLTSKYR
T1 sequence (P68871 2-147 limits assumed): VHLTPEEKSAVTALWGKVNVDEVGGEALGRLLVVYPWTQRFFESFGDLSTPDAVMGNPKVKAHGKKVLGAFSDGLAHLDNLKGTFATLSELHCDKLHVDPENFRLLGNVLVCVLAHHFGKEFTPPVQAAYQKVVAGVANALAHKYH
Experimental: (§1) Some of the compounds described herein were tested for P50, the partial pressure of oxygen for half-saturation, on free hemoglobin (Hb) as well as human whole blood (WB) in different concentrations.
Human whole blood was freshly withdrawn from healthy donors in heparinized microtubes. The pH of the compound solutions was adjusted to approximately 7.0 and whole blood volumes at 1:1 ratios were incubated individually for 1-2 h at 37° C. with the above compounds. The measurement of the OEC was carried out with the Hemox Analyzer (TCS Scientific Co.) under the following conditions: pH 7.4, 135 mM NaCl, 5 mM KCl and 30 mM TES (N-[tris(hydroxymethyl)methyl]-2-aminoethanesulfonic acid) buffer at 37° C.

class I PI3K = assay: PI3K HTRF assay (Reaction Biology), class I PI3K; format: biochemical, human; details: Yes = inhibition
hemoglobin = hemoglobin (Homo sapiens, UniProt P68871+P69905); details: background statement; can displace Hb-bound BPG; cited from earlier work
hemoglobin, sequence (P69905 2-142 limits assumed): as the sequence (P69905 2-142 limits assumed) above
hemoglobin, sequence (P68871 2-147 limits assumed): as the sequence (P68871 2-147 limits assumed) above

free hemoglobin (Hb) = molecular target: T2, free hemoglobin (Hb) (Homo sapiens, UniProt P68871+P69905); assay: Oxygen equilibrium curve (Hemox Analyzer), P50 on free hemoglobin; format: biochemical; details: blood matrix Hb, 100 mM compound; for P50 (Torr): effector/Hb ratio 20, pH 7.4, 37° C., n=3; for P50 increase (%): versus P50 control
T2 construct: the cells were hemolysed by addition of 2 volumes of cold distilled water; tissue EFS-Alsace; host or cells: red blood cell concentrate
T2 sequence (P69905 2-142 limits assumed): as the sequence (P69905 2-142 limits assumed) above
T2 sequence (P68871 2-147 limits assumed): as the sequence (P68871 2-147 limits assumed) above
Experimental: as §1
The hemoglobin solution was prepared from red blood cells concentrate (EFS-Alsace) by washing three times with 1 volume of saline (1500×g, 10 min), the cells were hemolysed by addition of 2 volumes of cold distilled water. After centrifugation (7000×g, 30 min) for stroma removal, 5 ml of the clear hemoglobin solution were placed on a 2.5 cm×30 cm column of Sephadex G-25 equilibrated with 0.1 M sodium chloride+10^−5 M EDTA. The protein was eluted with the same solution at a rate of about 20 ml/h [Benesch, R.; Benesch, R. E. and Yu, C. I. Reciprocal binding of oxygen and diphosphoglycerate by human hemoglobin. Proc. Natl. Acad. Sci. USA (1968) 59, 526-532].
The allosteric modulation of the effectors was measured by the change in p50, the partial pressure of oxygen for half-saturation. The pH of the compound solutions was adjusted to approximately 7.0. Oxygen equilibrium curves (OEC) were carried out with the Hemox Analyzer (TCS Scientific Co.) under the following conditions: pH 7.4, 135 mM NaCl, 5 mM KCl and 30 mM TES (N—[tris(hydroxymethyl)methyl]-2-aminoethanesulfonic acid) buffer at 37° C. The concentration of free hemoglobin was 5·10^−3 M (577 nm, ε=58.4 mM^−1 cm^−1 per tetramer) and the final concentrations of the allosteric effectors were of 1.0·10^−1 M, resulting in an effector/Hb ratio of 20.

Human PI3Kβ (p110β/p85α) = molecular target: T3, Human PI3Kβ (p110β/p85α) (Homo sapiens, UniProt P42338); assay: PI3K HTRF assay, PI3Kβ; format: biochemical
T3 construct: N-terminal 6His-tagged recombinant full-length human p110β; 6His (N); purchased Reaction Biology Corporation (RBC), Malvern, Pa; host or cells: Baculovirus infected Sf21 cells
T3 sequence (P42338 whole entry): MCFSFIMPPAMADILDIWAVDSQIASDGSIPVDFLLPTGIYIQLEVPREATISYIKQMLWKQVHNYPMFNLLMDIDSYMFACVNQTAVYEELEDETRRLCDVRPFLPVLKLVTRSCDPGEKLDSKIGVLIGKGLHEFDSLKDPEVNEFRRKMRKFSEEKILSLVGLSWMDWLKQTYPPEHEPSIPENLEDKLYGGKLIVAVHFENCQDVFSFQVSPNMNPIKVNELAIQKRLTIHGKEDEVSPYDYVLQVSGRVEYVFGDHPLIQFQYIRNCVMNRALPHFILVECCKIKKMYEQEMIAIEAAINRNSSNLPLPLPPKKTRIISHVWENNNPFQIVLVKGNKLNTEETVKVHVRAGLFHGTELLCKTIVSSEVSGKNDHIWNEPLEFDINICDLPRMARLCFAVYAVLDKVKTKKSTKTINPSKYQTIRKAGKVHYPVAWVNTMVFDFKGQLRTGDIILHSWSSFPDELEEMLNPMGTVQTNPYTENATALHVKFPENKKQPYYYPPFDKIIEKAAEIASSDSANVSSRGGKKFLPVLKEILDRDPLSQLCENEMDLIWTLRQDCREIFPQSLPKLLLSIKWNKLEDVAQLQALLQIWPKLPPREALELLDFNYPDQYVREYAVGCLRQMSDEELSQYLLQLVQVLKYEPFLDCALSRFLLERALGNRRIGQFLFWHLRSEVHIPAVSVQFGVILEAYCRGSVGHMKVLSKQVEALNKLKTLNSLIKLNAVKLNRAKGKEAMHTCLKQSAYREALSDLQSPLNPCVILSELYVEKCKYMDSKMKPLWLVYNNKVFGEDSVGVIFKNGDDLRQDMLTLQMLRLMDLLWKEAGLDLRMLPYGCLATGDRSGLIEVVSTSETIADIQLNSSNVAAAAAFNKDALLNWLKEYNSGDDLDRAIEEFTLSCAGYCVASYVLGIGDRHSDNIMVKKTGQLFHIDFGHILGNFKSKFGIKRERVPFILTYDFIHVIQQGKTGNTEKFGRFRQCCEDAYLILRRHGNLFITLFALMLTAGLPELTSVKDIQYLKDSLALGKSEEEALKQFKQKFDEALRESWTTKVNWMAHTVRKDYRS
T3 sequence (P27986 whole entry partner): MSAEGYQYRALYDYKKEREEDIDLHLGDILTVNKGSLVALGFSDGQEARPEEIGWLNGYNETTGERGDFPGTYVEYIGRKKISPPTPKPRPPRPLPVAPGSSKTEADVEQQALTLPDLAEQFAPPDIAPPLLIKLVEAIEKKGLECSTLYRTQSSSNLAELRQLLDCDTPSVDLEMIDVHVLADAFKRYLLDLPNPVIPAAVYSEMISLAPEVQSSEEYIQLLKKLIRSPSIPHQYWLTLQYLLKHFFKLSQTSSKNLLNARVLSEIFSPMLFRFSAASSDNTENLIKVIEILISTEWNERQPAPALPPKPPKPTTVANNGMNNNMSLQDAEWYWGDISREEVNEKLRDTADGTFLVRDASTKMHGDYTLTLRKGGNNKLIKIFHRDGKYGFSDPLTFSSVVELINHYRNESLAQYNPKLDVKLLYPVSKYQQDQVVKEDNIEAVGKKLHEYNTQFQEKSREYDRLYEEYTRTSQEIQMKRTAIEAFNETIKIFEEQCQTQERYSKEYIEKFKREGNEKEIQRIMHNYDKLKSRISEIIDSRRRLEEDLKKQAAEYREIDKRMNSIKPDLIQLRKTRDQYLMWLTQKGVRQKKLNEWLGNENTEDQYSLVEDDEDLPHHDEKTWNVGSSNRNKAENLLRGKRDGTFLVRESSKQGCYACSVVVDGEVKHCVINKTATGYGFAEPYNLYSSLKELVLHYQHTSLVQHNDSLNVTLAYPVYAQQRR

Human PI3Kδ (p110δ/p85α) = molecular target: T4, Human PI3Kδ (p110δ/p85α) (Homo sapiens, UniProt O00329); assay: PI3K HTRF assay, PI3Kδ; format: biochemical
T4 construct: N-terminal GST tagged recombinant full-length human p110δ; GST (N); purchased Reaction Biology Corporation (RBC), Malvern, Pa; host or cells: Baculovirus infected Sf9 cells
T4 sequence (O00329 whole entry): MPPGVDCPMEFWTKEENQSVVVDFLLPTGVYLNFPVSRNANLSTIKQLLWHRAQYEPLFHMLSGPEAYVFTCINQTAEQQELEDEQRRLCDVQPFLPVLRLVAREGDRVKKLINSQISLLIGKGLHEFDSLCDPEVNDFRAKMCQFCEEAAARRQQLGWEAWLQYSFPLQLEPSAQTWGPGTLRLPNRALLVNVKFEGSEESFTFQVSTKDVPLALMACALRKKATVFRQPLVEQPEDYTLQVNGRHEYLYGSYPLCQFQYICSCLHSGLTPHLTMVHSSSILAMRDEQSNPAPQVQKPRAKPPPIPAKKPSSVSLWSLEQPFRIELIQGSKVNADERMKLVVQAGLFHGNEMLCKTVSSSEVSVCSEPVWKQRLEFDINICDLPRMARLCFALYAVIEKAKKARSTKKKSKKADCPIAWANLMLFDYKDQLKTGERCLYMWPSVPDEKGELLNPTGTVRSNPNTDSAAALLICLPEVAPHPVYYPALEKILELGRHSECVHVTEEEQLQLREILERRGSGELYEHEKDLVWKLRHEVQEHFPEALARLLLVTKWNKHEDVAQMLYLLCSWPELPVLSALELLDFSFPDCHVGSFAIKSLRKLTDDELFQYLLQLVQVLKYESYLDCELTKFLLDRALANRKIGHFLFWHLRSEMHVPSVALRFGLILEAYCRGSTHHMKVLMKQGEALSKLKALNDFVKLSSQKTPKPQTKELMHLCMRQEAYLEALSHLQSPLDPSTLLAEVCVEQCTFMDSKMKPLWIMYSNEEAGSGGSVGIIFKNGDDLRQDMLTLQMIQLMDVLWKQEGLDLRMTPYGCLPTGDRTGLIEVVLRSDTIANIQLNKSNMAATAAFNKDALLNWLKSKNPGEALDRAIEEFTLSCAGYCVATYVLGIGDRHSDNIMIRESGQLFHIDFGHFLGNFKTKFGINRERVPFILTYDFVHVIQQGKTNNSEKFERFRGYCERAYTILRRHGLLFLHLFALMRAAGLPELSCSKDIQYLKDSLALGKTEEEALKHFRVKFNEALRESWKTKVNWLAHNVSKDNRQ
T4 sequence (P27986 whole entry partner): as the sequence (P27986 whole entry partner) above

Molecule: Dibutyl-L-tartrate bisphosphate [SP1-219]
P50 (Torr) ([1]; 60 mM compound): 30.91 ± 1.76 Torr | P50 increase (%) ([1]; 60 mM compound): 11% | P50 (Torr) ([1]; 120 mM compound): 30.77 ± 1.44 Torr | P50 increase (%) ([1]; 120 mM compound): 11%

Molecule: meso-Me Galactarate [OXY3006]
PI3 Kinase Inhibition (class I PI3K): Yes

Molecule: CCOC(=O)[C@@H]1OP(=O)([O-])OP(=O)([O-])O[C@H]1C(=O)OCC.[Na+].[Na+] [OXY3012, L-DET]
PI3 Kinase Inhibition (class I PI3K): Yes

Molecule: O=P(O)(O)O[C@H]1[C@H](OP(=O)(O)O)[C@@H](OP(=O)(O)O)[C@H](OP(=O)(O)O)[C@@H](OP(=O)(O)O)[C@H]1OP(=O)(O)O [Phytic acid, myo-inositol hexakisphosphate]
potency relative to BPG (fold) (hemoglobin): 1000 fold

Molecule: L-tartrate bisphosphate [SP1-90]
P50 (Torr) (free hemoglobin (Hb)): 24.76 ± 1.31 Torr | P50 increase (%) (free hemoglobin (Hb)): 127%

Molecule: O=P1(O)OC2C3OP(=O)(O)OP(=O)(O)OC3C3OP(=O)(O)OP(=O)(O)OC3C2OP(=O)(O)O1 (stereo not shown) [OXY111A, Myo-ITPP]
activity against PI3Kβ (Human PI3Kβ (p110β/p85α)): showed activity | PI3 Kinase Inhibition (class I PI3K): Yes | activity against PI3Kδ (Human PI3Kδ (p110δ/p85α)): showed activity

P50 (Torr) (free hemoglobin (Hb)): 29.40 ± 1.20 Torr | P50 increase (%) (free hemoglobin (Hb)): 151% | P50 (Torr) ([1]; 120 mM compound): 30.17 ± 0.94 Torr | P50 increase (%) ([1]; 120 mM compound): 17%
Molecule: O=P(O)(O)OCC(OP(=O)(O)O)C(COP(=O)(O)O)OP(=O)(O)O (stereo not drawn) [SP1-134, meso-erythritol tetraphosphate]
